Data as given in patent publication US9862711B2, “Pyrazine derivatives as phosphatidylinositol 3-kinase inhibitors” (NOVARTIS AG, priority 2014, dated 2018).

Tests used:
PI 3-kinase gamma = PI 3-kinase gamma (Homo sapiens (Human), UniProt P48736); assay: Cellular U937 AKT assay (Assay K); format: cell-based; details: AKT phosphorylation in U937 monocyte cells stimulated with 10 ng/ml MIP1α; read-out: Assay K PI3Kγ IC50
Method: Cellular U937 AKT Assay for PI 3-Kinase Gamma (K)
The U937 monocyte cell line is maintained in a basal medium of RPMI 1640 supplemented with 10% heat inactivated FCS, 100 U/ml Penicillin, 100 ug/ml streptomycin and 2 mM L-glutamine (Invitrogen). U937 suspension culture is maintained by seeding cells at a density of 0.125×10^6 cells per ml in fresh medium every three or four days. Cells are incubated at 37° C., 5% CO2. Three or four days prior to assay, cells are seeded at a density of 0.25×10^6 cells per ml in a total volume of 40 ml in a T162 culture flask.
Before beginning the cell manipulations described below, the MSD (Meso Scale Discovery) assay plate is blocked by addition of 150 ul/well blocking buffer supplied and incubated with shaking for a minimum of one hour at room temperature. All steps of the assay must be performed quickly, with accurately timed incubation periods and observing temperature controls where indicated.
Cells seeded at 0.25×10^6/ml 3 or 4 days prior to the assay are aspirated, transferred to a 50 ml falcon tube, counted and centrifuged for eight minutes at 300 g at room temperature. Supernatant is aspirated, the cell pellet resuspended and washed once in HBSS (Hank's Balanced Salt Solution) by centrifugation for eight minutes at 300 g at room temperature. The cell pellet is resuspended in HBSS to a concentration of 4×10^6 per ml, and 100 μL of cell suspension added to each well of a flat-bottomed 96-well tissue culture plate. Assay plates are incubated for 1.5 hours at 37° C., 5% CO2 to allow background AKT phosphorylation to reduce before the compound stimulation step.
A 5 mM stock concentration of compound is prepared in 100% DMSO; from this a 1 in 125 dilution is made in HBSS giving a top compound concentration of 40 μM, 0.8% DMSO. Compound titrations are prepared in a fresh flat-bottomed, 96-well plate, by 10-fold serial dilution of 40 uM into HBSS 0.8% DMSO; pipette tips are replaced after each dilution is made. Compound concentrations at this stage are 4-times the final concentration required in the assay plate. Cells are stimulated with compound or HBSS 0.8% DMSO by direct transfer of 50 ul/well from the compound dilution plate. The assay plate containing compound-treated cells is then incubated for 30 minutes at 37° C. A standard plate layout is used for all experiments.
Compound-treated cells, in addition to positive control wells (“max MIP1α”), are stimulated with 50 μL per well of 40 ng/ml MIP1α (R&D Systems catalogue number 270-LD, lyophilized stock reconstituted to 50 μg/ml with PBS 0.1% BSA). Negative control wells (“min HBSS”), are stimulated with 50 μl/well of HBSS in the absence of MIP1α. Final compound concentrations are now diluted 4-fold giving a top concentration of 10 μM; where added, the final concentration of MIP1α is 10 ng/ml. Cells are incubated with MIP1α for 3 minutes, at 37° C., 5% CO2. After the three minute stimulation period, the assay plate is kept ice cold at all times. Assay plates are centrifuged for 2 minutes at 300 g, 4° C. and supernatant is removed by gently inverting, and then blotting the plate on tissue. Cells are then washed by gentle addition of 150 μL/well of ice cold HBSS and centrifugation at 300 g, for 5 minutes at 4° C. Supernatant is aspirated and the plate blotted as described above. The plate is placed on ice and cells are immediately treated with 35 μL per well of ice cold lysis buffer, prepared according to the kit instructions (per assay plate, to 5 ml of Tris lysis buffer add 100 μl of 50× protease inhibitor solution and 50 μl of each 100× phosphatase inhibitor solutions I and II). Plates are incubated on ice for 20 minutes before centrifugation at 841 g for 5 minutes, 4° C.
Block buffer is aspirated from the MSD plate, and the plate washed four times with 300 μl/well Tris wash buffer. 25 μL of cell lysate is then transferred from the assay plate to the washed MSD plate which is sealed and incubated at room temperature for one hour with shaking. […]

mTOR = mTOR (Homo sapiens (Human), UniProt P42345); assay: Lanthascreen kinase binding assay (Assay G); details: GST-mTOR, Tracer-314
From the text: Lanthascreen™ Kinase Binding Assay for mTOR (G)
Binding Assays are based on the binding and displacement of an Alexa Fluor® 647-labeled, ATP-competitive kinase inhibitors to the kinase of interest. Invitrogen's “Kinase Tracers” have been developed to address a wide range of kinase targets and are based on ATP-competitive kinase inhibitors, making them suitable for detection of any compounds that bind to the ATP site or to an allosteric site altering the conformation of the ATP site.
In the Lanthascreen™ kinase binding assay, the donor (Eu^3+-anti-GST (glutathione 5-transferase) antibody) is excited at 340 nm and will transfer its energy to the acceptor (Alexa Fluor® 647-labeled ATP-competitive kinase inhibitor=Tracer-314). The emission from the Tracer-314 (Alexa Fluor® 647 inhibitor) can be monitored with a filter centered at 665 nm because it is located between the emission peaks of the donor, which is measured at 615/620 nm. The binding of both, the Tracer-314 and Eu^3+-anti-GST antibody, to the kinase results in a high degree of FRET from the Eu^3+-donor fluorophore to the Alexa-Fluor® 647-acceptor fluorophore on the Tracer-314. Binding of an inhibitor to the kinase competes for binding with the tracer, resulting in a loss of FRET.
50 nL of compound dilutions were dispensed onto white 384-well small volume polystyrene plate. Then 5 μL of GST-mTOR and Europium-anti-GST antibody followed by 5 μL of tracer-314 (final assay volume 10 μL) are incubated at RT. The standard reaction buffer for the Lanthascreen™ kinase binding assay contained 50 mM HEPES pH 7.5, 5 mM MgCl2, 1 mM EGTA, 0.01% Pluronic F-127. Plates are read 60 mins later in a Synergy2 reader using an integration time of 0.2 microseconds and a delay of 0.1 microseconds.
To calculate the emission ratio, the signal emitted at 665 nm from the acceptor (Alexa Fluor® 647-labeled Tracer-314) is divided by the signal emitted at 620 nm from the donor (Eu^3+ anti-GST antibody).
Control for the 0% inhibition was given by the solvent vehicle of the compounds (90% DMSO in H2O). Control for the relative 100% inhibition was performed by adding 10 μM in the mix containing GST-mTOR and Europium anti-GST antibody. An additional control for the absolute 0% inhibition is given by Eu^3+ anti-GST antibody without GST-mTOR. Standard compounds for the lipid kinase panel profiling were used as a reference and included in all assay plates in the form of 8 dilution points.

Sequence of PI 3-kinase gamma (P48736 whole entry): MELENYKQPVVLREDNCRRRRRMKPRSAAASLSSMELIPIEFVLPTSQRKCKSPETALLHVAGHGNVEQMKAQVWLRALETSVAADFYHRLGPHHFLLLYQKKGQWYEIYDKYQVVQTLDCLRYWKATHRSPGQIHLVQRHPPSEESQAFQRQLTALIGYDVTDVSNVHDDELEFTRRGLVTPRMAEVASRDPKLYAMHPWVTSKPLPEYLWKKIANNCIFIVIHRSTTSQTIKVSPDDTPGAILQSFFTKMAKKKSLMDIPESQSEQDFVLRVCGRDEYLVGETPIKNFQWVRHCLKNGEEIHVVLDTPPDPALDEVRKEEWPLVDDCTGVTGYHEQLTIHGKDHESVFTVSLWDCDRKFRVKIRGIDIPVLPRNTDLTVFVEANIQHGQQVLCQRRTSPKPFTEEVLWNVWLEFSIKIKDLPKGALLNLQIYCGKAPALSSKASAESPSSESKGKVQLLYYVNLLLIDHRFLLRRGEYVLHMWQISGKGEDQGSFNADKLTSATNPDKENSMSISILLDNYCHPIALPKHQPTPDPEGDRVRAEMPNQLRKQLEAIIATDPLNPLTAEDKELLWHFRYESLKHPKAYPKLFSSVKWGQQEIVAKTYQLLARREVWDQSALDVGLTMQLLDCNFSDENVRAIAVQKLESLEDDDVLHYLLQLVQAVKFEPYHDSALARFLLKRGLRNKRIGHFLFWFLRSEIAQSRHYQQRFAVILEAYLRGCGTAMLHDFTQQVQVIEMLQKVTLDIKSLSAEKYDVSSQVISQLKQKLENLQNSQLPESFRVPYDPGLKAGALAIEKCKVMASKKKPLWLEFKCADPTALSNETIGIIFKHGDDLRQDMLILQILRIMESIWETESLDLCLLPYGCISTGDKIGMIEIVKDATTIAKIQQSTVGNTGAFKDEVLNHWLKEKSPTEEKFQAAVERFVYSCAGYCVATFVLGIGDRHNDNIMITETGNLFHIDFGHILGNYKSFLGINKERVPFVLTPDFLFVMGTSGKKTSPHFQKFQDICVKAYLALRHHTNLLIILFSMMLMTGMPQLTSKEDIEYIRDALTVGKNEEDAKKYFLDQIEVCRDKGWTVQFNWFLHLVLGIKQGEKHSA

Row | SMILES | IC50 (PI 3-kinase gamma) [nM] | IC50 (mTOR) [nM]
1 | Cc1ccc(S(=O)(=O)NCC(C)(C)O)cc1-c1cncc(-c2cn(C)nc2C)n1 [Example 2, 3-[6-(1,3-Dimethyl-1H-pyrazol-4-yl)-pyrazin-2-yl]-N-(2-hydroxy-2-methyl-propyl)-4-methyl-benzenesulfonamide] | 66 | 1180
2 | Cc1ncc(-c2cncc(-c3cc(S(=O)(=O)N[C@H]4CC[C@H](O)CC4)ccc3C)n2)s1 [Example 5, Trans N-(4-Hydroxycyclohexyl)-4-methyl-3-(6-(2-methylthiazol-5-yl)pyrazin-2-yl)benzenesulfonamide] | 38 | 4770
3 | Cc1ccc(S(=O)(=O)NCCC(C)(C)O)cc1-c1cncc(-c2cn(C)nc2C)n1 [Example 3, 3-[6-(1,3-Dimethyl-1H-pyrazol-4-yl)-pyrazin-2-yl]-N-(3-hydroxy-3-methyl-butyl)-4-methyl-benzenesulfonamide] | 80 | 3850
4 | Cc1ccc(S(=O)(=O)NCC(C)(C)CO)cc1-c1cncc(-c2cn(C)nc2C)n1 [Example 8, 3-[6-(1,3-Dimethyl-1H-pyrazol-4-yl)-pyrazin-2-yl]-N-(3-hydroxy-2,2-dimethyl-propyl)-4-methyl-benzenesulfonamide] | 96 | 1950
5 | Cc1ccc(S(=O)(=O)NCC2(C)COC2)cc1-c1cncc(-c2cn(C)nc2C)n1 [Example 4, Trans 3-[6-(1,3-Dimethyl-1H-pyrazol-4-yl)-pyrazin-2-yl]-4-methyl-N-(3-methyl-oxetan-3-ylmethyl)-benzenesulfonamide] | 54 | 890
6 | Cc1ncc(-c2cncc(-c3cc(S(=O)(=O)NCCCO)ccc3C)n2)s1 [Example 1, N-(3-Hydroxy-propyl)-4-methyl-3-[6-(2-methyl-thiazol-5-yl)-pyrazin-2-yl]-benzenesulfonamide] | 329 | 5250

The next lines start with the values.

Row | IC50 (PI 3-kinase gamma) [nM] | IC50 (mTOR) [nM] | SMILES
7 | 213 | 6240 | Cc1ccc(S(=O)(=O)N[C@H]2CC[C@H](O)CC2)cc1-c1cncc(-c2cccnc2)n1 [Example 11, Trans N-(4-Hydroxy-cyclohexyl)-4-methyl-3-(6-pyridin-3-yl-pyrazin-2-yl)-benzenesulfonamide]
8 | 599 | > 9100 | Cc1ccc(S(=O)(=O)NCCC(C)(C)O)cc1-c1cncc(-c2cnn(CCN3CCOCC3)c2)n1 [Example 9, N-(3-Hydroxy-3-methyl-butyl)-4-methyl-3-{6-[1-(2-morpholin-4-yl-ethyl)-1H-pyrazol-4-yl]-pyrazin-2-yl}-benzenesulfonamide]
9 | 121 | 9800 | Cc1ccc(S(=O)(=O)NCCC(C)(C)O)cc1-c1cncc(-c2cn(CCN3CCOCC3)nc2C)n1 [Example 10, N-(3-Hydroxy-3-methyl-butyl)-4-methyl-3-{6-[3-methyl-1-(2-morpholin-4-yl-ethyl)-1H-pyrazol-4-yl]-pyrazin-2-yl}-benzenesulfonamide]
